Laboratory results as given in patent EP1655298A1, “Novel polymorph forms of candesartan cilexetil” (priority 2004, dated 2006).
Like-named read-outs stand apart in the source and are kept apart here.

What was measured:
Format in all cases: physicochemical
Hygroscopicity by DVS = details: DVS - first cycle at 90 % humidity
Protocol: (§1) Physiologically relevant medium is a phosphate buffer at pH=6.76 + Sodiumtauroholat (2,5 mM) + Lecitin (0,5 mM). Surface area of Form 1 was 2.15 - 2,68 m^2/g whereas the surface area of Form 5 was 7,66 m^2/g (BET - isotherm), the hygroscopity as established by DVS - first cycle at 90 % humidity was 0,23% for Form I and 0,44% for Form 5.

[1] = Comparable solubility in phosphate buffer / physiologically relevant medium; details: for solubility at 0.5 h: read-out: C30 min; for solubility at 1 h: read-out: C60 min
Protocol: In order to prepare a pharmaceutical composition physical properties were measured.
as §1

[2] = Surface area (BET isotherm)
Protocol: as §1

| hygroscopity (Hygroscopicity by DVS; listed as Form I) | solubility at 0.5 h ([1]; aqueous buffer, Phosphate buffer pH=6.76, 30 min) | solubility at 1 h ([1]; aqueous buffer, Phosphate buffer pH=6.76, 60 min) | hygroscopity (Hygroscopicity by DVS) | Surface area [2] | C30 min ([1]; Phosphate buffer pH=6.76, 30 min) | C60 min ([1]; Phosphate buffer pH=6.76, 60 min) | solubility at 0.5 h ([1]; phosphate buffer + taurocholate + lecithin, Physiologically relevant medium: phosphate buffer pH=6.76 + Sodiumtauroholat (2,5 mM) + Lecitin (0,5 mM), 30 min) | solubility at 1 h ([1]; phosphate buffer + taurocholate + lecithin, Physiologically relevant medium: phosphate buffer pH=6.76 + Sodiumtauroholat (2,5 mM) + Lecitin (0,5 mM), 60 min) | SMILES |
| --- | --- | --- | --- | --- | --- | --- | --- | --- | --- |
| 0,23% | < 0.2 µg/mL | < 0.2 µg/mL |  |  |  |  |  |  | CCOc1nc2cccc(C(=O)OC(C)OC(=O)OC3CCCCC3)c2n1Cc1ccc(-c2ccccc2-c2nnn[nH]2)cc1 (stereo not drawn) [Form 1, candesartan cilexetil] |
|  |  |  | 0,44% | 7,66 m^2/g | <0.2 µg/mL | <0.2 µg/mL | 37.1 µg/mL | 68.5 µg/mL | CCOc1nc2cccc(C(=O)OC(C)OC(=O)OC3CCCCC3)c2n1Cc1ccc(-c2ccccc2-c2nnn[nH]2)cc1 (stereo not drawn) [Form 5, candesartan cilexetil] |
